Structures can show the parent of a compound that is named as a salt.
Molecular target: T1, protein farnesyltransferase (Rattus norvegicus, UniProt Q02293+Q04631)
T1 construct: Rat brain protein farnesyltransferase activity is measured; from tissue; host or cells: rat brain; purified according to Reiss et al., Cell 62:81-88 (1990), steps one through three
Assay: in vitro inhibition of protein farnesyltransferase (scintillation proximity assay, biotin-K Ras B fragment)
Type: biochemical
Settings: at 1 × 10^-6 M
Outline: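 Rat brain enzyme, purified through three steps, in a scintillation proximity assay kit with biotin-K Ras B fragment substrate at 0.1 mM final. Value is % inhibition of farnesylation.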

First: CSCC[C@H](NC(=O)c1ccc(CN2CCN(C(=O)OC(C)(C)C)CC2)cc1-c1ccccc1C)C(=O)O [Example 866]
Second: CSCC[C@H](NC(=O)c1ccc(CN2CCN(c3ccccc3)CC2)cc1-c1ccccc1C)C(=O)O [Example 867]
The “% inhibition of farnesyltransferase” value of the first is lower: 62% for the first, 71% for the second.

In the case of `CSCC[C@H](NC(=O)c1ccc(COCc2ccc(-c3ccc(F)cc3)o2)cc1-c1cccc2ccccc12)C(=O)[O-].[Li+]` [Example 868], the “% inhibition of farnesyltransferase” value is reported as 89%.

Same assay, conditions: at 1 × 10^-6 M; read-out: % inhibition of farnesyltransferase

Going from `CSCC[C@H](NC(=O)c1ccc(CN(Cc2ccco2)C(C)C)cc1-c1ccccc1C)C(=O)O` [Example 831, N-[4-N-(furan-2-ylmethyl)-N-isopropylaminomethyl-2-(2-methylphenyl)benzoyl]methionine lithium salt] to `CSCC[C@H](NC(=O)c1ccc(CN(Cc2ccoc2)C(C)C)cc1-c1ccccc1C)C(=O)O` [Example 832, N-[4-N-(furan-3-ylmethyl)-N-isopropylainomethyl-2-(2-methylphenyl)benzoyl]methionine lithium salt], the inhibition at 1 µM falls from 92% to 80%.

Compared with `CSCC[C@H](NC(=O)c1ccc(CN(Cc2ccccc2)Cc2ccccc2)cc1-c1ccccc1)C(=O)O` [Example 834, N-[4-N,N-dibenzylaminomethyl-2-phenylbenzoyl]methionine lithium salt], `CSCC[C@H](NC(=O)c1ccc(CN(Cc2ccccc2)c2ccccc2Cl)cc1-c1ccccc1C)C(=O)O` [Example 846, N-[4-N-(N-benzyl-N-(2-chlorophenyl)aminomethyl)-2-(2-methylphenyl)benzoyl]methionine lithium salt] is higher in inhibition at 1 µM: 55% for the first, 85% for the second.

Compared with `CSCC[C@H](NC(=O)c1ccc(CN(CCc2ccccc2)C(C)C)cc1-c1ccccc1C)C(=O)O` [Example 835, N-[14-N-(2-phenylethyl)-N-isoprolpylaminomethyl-2-(2-methylphenyl)benzoyl]methionine lithium salt], `CSCC[C@H](NC(=O)c1ccc(CN(Cc2ccccc2)c2ccccc2C(C)=O)cc1-c1ccccc1C)C(=O)O` [Example 844, N-[4-N-(N-benzyl-N-(2-acetylphenyl)aminomethyl)-2-(2-methylphenyl)benzoyl]methionine lithium salt] is lower in inhibition at 1 µM: 96% for the first, 92% for the second.

In the case of `CSCC[C@H](NC(=O)c1ccc(CNc2ccc(N3CCCCC3)cc2)cc1-c1ccccc1C)C(=O)O` [Example 862, N-[4-N-(4-piperidin-1-ylphenyl)aminomethyl-2-(2-methylphenyl)benzoyl]methionine], the inhibition at 1 µM is reported as 95%.

Same assay, conditions: at 1 × 10^-7 M

Going from `CSCC[C@H](NC(=O)c1ccc(/C=C/c2ccc(Oc3ccccc3Cl)cc2)cc1-c1ccccc1C)C(=O)O` [Example 854] to `CSCC[C@H](NC(=O)c1ccc(/C=C/c2ccc(Oc3ccccc3[N+](=O)[O-])cc2)cc1-c1ccccc1C)C(=O)O` [Example 856], the “% inhibition of farnesyltransferase” value rises from 78% to 97%.

`CSCC[C@H](NC(=O)c1ccc(CCc2ccc(Oc3ccccc3Cl)cc2)cc1-c1ccccc1C)C(=O)O` [Example 855] and `CSCC[C@H](NC(=O)c1ccc(CCc2ccc(Oc3ccccc3N)cc2)cc1-c1ccccc1C)C(=O)O` [Example 857] are the same in “% inhibition of farnesyltransferase” value: 92% for the first, 92% for the second.

Compared with `CSCC[C@H](NC(=O)c1ccc(CCc2ccc(Oc3cccc(Cl)c3)cc2)cc1-c1ccccc1C)C(=O)O` [Example 859], `CSCC[C@H](NC(=O)c1ccc(/C=C/c2ccc(Oc3cccc([N+](=O)[O-])c3)cc2)cc1-c1ccccc1C)C(=O)O` [Example 861] is lower in “% inhibition of farnesyltransferase” value: 86% for the first, 65% for the second.

For `CSCC[C@H](NC(=O)c1ccc(COCc2ccc(-c3ccc(F)cc3)o2)cc1-c1ccc(F)cc1Cl)C(=O)[O-].[Li+]` [Example 869], the “% inhibition of farnesyltransferase” value was 92%.

Same assay, conditions: at 1 × 10^-7 M; read-out: % inhibition of farnesyltransferase

Going from `COc1ccccc1N(Cc1ccccc1)Cc1ccc(C(=O)N[C@@H](CCSC)C(=O)O)c(-c2ccccc2C)c1` [Example 839, N-[4-(N-benzyl-N-(2-methoxyphenyl)aniinomethyl)-2-(2-methylphenyl)benzoyl]methionine lithium salt] to `CSCC[C@H](NC(=O)c1ccc(CNc2ccc(Oc3ccccc3)cc2)cc1-c1ccccc1C)C(=O)O` [Example 864, N-[4-N-(4-phenoxyphenyl)aminomethyl-2-(2-methylphenyl)benzoyl]methionine], the inhibition at 0.1 µM rises from 63% to 84%.

For `CSCC[C@H](NC(=O)c1ccc(CNc2ccc(N3CCOCC3)cc2)cc1-c1ccccc1C)C(=O)O` [Example 863, N-[4-N-(4-morpholin-1-ylphenyl)aminomethyl-2-(2-methylphenyl)benzoyl]methionine], the inhibition at 0.1 µM was 72%.

Same assay, conditions: at 1 × 10^-8 M

Going from `CSCC[C@H](NC(=O)c1ccc(COCc2oc(-c3ccc(Cl)cc3)c(Cl)c2Cl)cc1-c1ccccc1C)C(=O)[O-].[Li+]` [Example 829] to `CSCC[C@H](NC(=O)c1ccc(CCc2ccc(Oc3ccc(Cl)cc3)cc2)cc1-c1ccccc1C)C(=O)O` [Example 860], the “% inhibition of farnesyltransferase” value falls from 92% to 85%.

`CSCC[C@H](NC(=O)c1ccc(/C=C/c2ccc(Oc3cccc(Cl)c3)cc2)cc1-c1ccccc1C)C(=O)O` [Example 858] was tested, and the “% inhibition of farnesyltransferase” value was 60%.

Same assay, conditions: at 1 × 10^-8 M; read-out: % inhibition of farnesyltransferase

First: COc1cccc(N(Cc2ccccc2)Cc2ccc(C(=O)N[C@@H](CCSC)C(=O)O)c(-c3ccccc3C)c2)c1 [Example 833, N-[4-N-benzyl-N-3-methoxyphenylaminomethyl-2-(2-methylphenyl)benzoyl]methionine lithium salt]
Second: CSCC[C@H](NC(=O)c1ccc(CN(Cc2ccccc2)c2cccc(Cl)c2)cc1-c1ccccc1C)C(=O)O [Example 847, N-[4-N-(N-benzyl-N(3-chlorophenyl)aminomethyl)-2-(2-methylphenyl)benzoyl]methionine lithium salt]
The inhibition at 0.01 µM of the first is lower: 78% for the first, 85% for the second.

First: CSCC[C@H](NC(=O)c1ccc(CN(Cc2ccccc2)c2cncnc2)cc1-c1ccccc1C)C(=O)O [Example 836, N-[4-N-benzyl-N-pyrimidin-5-ylaminomethyl-2-(2-methylphenyl)benzoyl]methionine lithium salt]
Second: CSCC[C@H](NC(=O)c1ccc(CN(Cc2ccccc2)c2ccc(Cl)cc2)cc1-c1ccccc1C)C(=O)O [Example 848, N-[4-N-(N-benzyl-N-(4-chlorophenyl)aminomethyl)-2-(2-methylphenyl)benzoyl]methionine lithium salt]
The inhibition at 0.01 µM of the first is higher: 95% for the first, 87% for the second.

Compared with `CSCC[C@H](NC(=O)c1ccc(CN(Cc2ccc3c(c2)OCO3)c2cncnc2)cc1-c1ccccc1C)C(=O)O` [Example 837, lithium salt], `CSCC[C@H](NC(=O)c1ccc(CN(Cc2ccc3c(c2)OCO3)c2cnccn2)cc1-c1ccccc1C)C(=O)O` [Example 838, N-[4-N-(1,3-benzodiox-5-yl)-N-pyridizin-2-ylaminomethyl-2-(2-methylphenyl)benzoyl]methionine lithium salt] is higher in inhibition at 0.01 µM: 91% for the first, 92% for the second.

First: COc1ccc(N(Cc2ccccc2)Cc2ccc(C(=O)N[C@@H](CCSC)C(=O)O)c(-c3ccccc3C)c2)cc1 [Example 840, N-[4-(N-benzyl-N-(4-methoxyphenyl)aaminomethyl)-2-(2-methylphenyl)benzoyl]methionine lithium salt]
Second: CSCC[C@H](NC(=O)c1ccc(CN(Cc2ccccc2)c2ccc([N+](=O)[O-])cc2)cc1-c1ccccc1C)C(=O)O [Example 843, N-[4-(N-benzyl-N-(4-nitrophenyl)aninomethyl)-2-(2-methylphenyl)benzoyl]methionine lithium salt]
The inhibition at 0.01 µM of the first is lower: 73% for the first, 96% for the second.

`CSCC[C@H](NC(=O)c1ccc(CN(Cc2ccccc2)c2cccc(C(C)=O)c2)cc1-c1ccccc1C)C(=O)O` [Example 845, N-[4-N-(N-benzyl-N-(3-acetylphenyl)aninomethyl)-2-(2-methylphenyl)benzoyl]methionine lithium salt] and `CSCC[C@H](NC(=O)c1ccc(CN(Cc2ccccc2)c2ccc(C(F)(F)F)cc2)cc1-c1ccccc1C)C(=O)O` [Example 853, N-[4-(N-benzyl-N-(4-trifluoromethylphenyl)aminomethvl)-2-(2-methylphenyl)benzoyl]methionine lithium salt] are the same in inhibition at 0.01 µM: 85% for the first, 85% for the second.

Work on `CSCC[C@H](NC(=O)c1ccc(CN(Cc2cncs2)S(=O)(=O)c2ccc(C)cc2)cc1-c1ccccc1C)C(=O)O` [Example 877] yielded an inhibition at 0.01 µM of 68%.

Same assay, conditions: read-out: % inhibition of farnesyltransferase

Going from `CSCC[C@H](NC(=O)c1ccc(CN(Cc2ccccc2)c2cccc([N+](=O)[O-])c2)cc1-c1ccccc1C)C(=O)O` [Example 842, N-[4-(N-benzyl-N-(3-nitrophenyl)aminomethyl)-2-(2-methylphenyl)benzoyl]methionine lithium salt] to `CSCC[C@H](NC(=O)c1ccc(CN(Cc2ccccc2)c2cccc(SC)c2)cc1-c1ccccc1C)C(=O)O` [Example 851, N-[4-(N-benzyl-N-(3-methylthiophenyl)aminomethyl)-2-(2-methylphenyl)benzoyl]methionine lithium salt], the inhibition at 0.01 µM falls from 88% to 82%.

In the case of `CSCC[C@H](NC(=O)c1ccc(CN(Cc2ccccc2)c2ccc(SC)cc2)cc1-c1ccccc1C)C(=O)O` [Example 852, N-[4-(N-benzyl-N-(4-methylthiophenyl)aminomethyl)-2-(2-methylphenyl)benzoyl]methionine lithium salt], the inhibition at 0.01 µM is reported as 79%.

Compound `CSCC[C@H](NC(=O)c1ccc(CN(Cc2ccccc2)c2ccccc2[N+](=O)[O-])cc1-c1ccccc1C)C(=O)O` [Example 849, N-[4-(N-benzyl-N-(2-nitrophenyl)aminomethyl)-2-(2-methylphenyl)benzoyl]methionine lithium salt] has an inhibition at 0.1 µM of 66%.

In the case of `CSCC[C@H](NC(=O)c1ccc(CN(Cc2ccccc2)c2ccccc2SC)cc1-c1ccccc1C)C(=O)O` [Example 850, N-[4-(N-benzyl-N-(2-methylthiophenyl)aminomethyl)-2-(2-methylphenyl)benzoyl]methionine lithium salt], the inhibition at 1 µM is reported as 90%.

Source: patent US6310095A, “Inhibitors of protein isoprenyl transferases” (University of Pittsburgh, priority 1998, dated 2001)
